Assay results published in ChEMBL document CHEMBL3832761, “MMV Pathogen Box Bioactivity Data” (2017).

How the values were obtained:
HepG2 [1] = assay: HepG2 inhibition at 10 uM (%) Cytotoxicity; assay type: functional; details: Homo sapiens
Plasmodium falciparum [2] = assay: Antimalarial activity: Asexual Blood Stage Plasmodium falciparum 3D7 IC50 (uM); assay type: functional, organism-based
Plasmodium falciparum [3] = assay: Antimalarial activity: Asexual Blood Stage Plasmodium falciparum Dd2 IC50 (uM); assay type: functional, organism-based
Plasmodium falciparum [4] = assay: Antimalarial activity: Asexual Blood Stage Plasmodium falciparum W2 IC50 (uM); assay type: functional, organism-based
Plasmodium falciparum [5] = assay: Antimalarial activity: Gametocytes Plasmodium falciparum NF54 Gametocytes Stage V: inhibition at 10 uM (%); assay type: functional
HepG2 [6] = assay: Cytotoxicity data HepG2 CC20 (uM); assay type: functional
Plasmodium berghei = assay: Antimalarial activity: Liver Stage Plasmodium berghei sporozoite Luciferase assay: inhibition at 10 uM (%); assay type: functional

Row | SMILES | inhibition at 10 µM (HepG2 [1]) [%] | IC50 (Plasmodium falciparum [2]) [nM] | IC50 (Plasmodium falciparum [3]) [nM] | IC50 (Plasmodium falciparum [4]) [nM] | Inhibition (Plasmodium falciparum [5]) [%] | CC20 (HepG2 [6]) [µM] | Inhibition (Plasmodium berghei) [%]
1 | COc1ccc(Cl)cc1NC(=O)CN(C)C(=O)c1cnn(-c2ccccc2)n1 | 6 | 240 | 240 | 290 | 60 | 72.2 | 48
2 | COc1ccccc1C(C)NCC(=O)Nc1cc(C(F)(F)F)ccc1Cl (stereo not drawn) | 13 | 1380 | 2820 | 1400 | 1 | 33.7 | 55
3 | Cc1ccc2[nH]c3c(NCCN(C)C)ncnc3c2c1 | 4 | 790 | 1310 | 4000 | 21 | – | 0
4 | CCn1cnc2c(Nc3cc(F)cc(F)c3)nc(C#N)nc21 | 5 | 900 | 940 | 940 | 3 | – | 0
5 | COc1ccc(-c2cncc3ccc(C(=O)NCCCn4ccnc4)nc23)cc1 | 47 | 1080 | 1350 | 1720 | 71.3 | – | 98
6 | CC(C(=O)N1CCCC1)N1CCN(S(=O)(=O)c2ccc(C(C)(C)C)cc2)CC1 (stereo not drawn) | 0 | 900 | 1330 | 2170 | 1 | >80 | 18
7 | CN1CCN(S(=O)(=O)c2ccc(-c3ccc4c(Nc5ccc6nn[nH]c6c5)ccnc4c3)cc2)CC1 | 0 | 420 | 420 | 800 | 8 | >80 | 0
8 | Cc1noc(C)c1C(=O)N1CCCC(c2[nH]c3c(C)cccc3c2-c2ccncc2)C1 (stereo not drawn) | 0 | 940 | 740 | 620 | 42 | >80 | 52
9 | O=C(Nc1cnc2ccccc2c1)c1cccc(-n2cnnn2)c1 | 0 | 540 | 1880 | 580 | 1 | >80 | 0
10 | c1ccc2c(c1)CN(CC1CC1)CC1(CCN(Cc3c[nH]c4cnccc34)CC1)O2 | 35 | 610 | 1600 | 2450 | 8.4 | – | 89
11 | CC(C)c1ncc(-c2ccncc2)c([C@H]2CC[C@H](CNC(=O)c3cccnc3)CC2)n1 | 0 | 840 | 1000 | 660 | 3 | >80 | 0
12 | CCc1cc(=O)n(C)c(SC(C)C(=O)Nc2ccc(F)cc2)n1 (stereo not drawn) | 25 | 1970 | 1990 | 2090 | 0 | – | 47
13 | COc1cc(OC)cc(C(=O)NCC2Cc3cc(Cl)cc(-c4ccncc4)c3O2)c1 (stereo not drawn) | 9 | 580 | 3260 | 1020 | 12.1 | – | 52
14 | COc1ccc(CCN2CCC(NCc3cccc(N(C)C)c3)CC2)cc1 | 6 | 1200 | 3050 | 4470 | 4.11 | – | 67
15 | Nc1ncc(Br)cc1-c1nc2cc(Cl)cnc2[nH]1 | 42 | 1500 | 2240 | 2400 | 0 | – | 89
16 | Cc1cc2ccccc2n1CC(=O)N1CC(C(=O)N2CCCCC2)Oc2ccccc21 (stereo not drawn) | 10 | 1080 | 770 | 1050 | 30 | 21.8 | 1
17 | COc1ccc(C2CC(c3cccs3)=NN2C(=O)c2ccco2)cc1OC (stereo not drawn) | 15 | 300 | 980 | 850 | 1 | 43.1 | 26
18 | Cc1cc(NC(=O)c2ccc(S(=O)(=O)N(Cc3ccccc3)C(C)C)cc2)no1 | 13 | 980 | 1360 | 690 | 12.9 | – | 72
19 | CC1(C)Cc2c(c(N3CCOCC3)nc3snc(Br)c23)CO1 | 4 | 290 | 260 | 370 | 1 | – | 4
20 | CCOc1ccccc1C(=O)Nc1cccc(-c2nc3ncccn3c2C)c1 | 4 | 1270 | 2720 | 1100 | 42.5 | – | 94
21 | COc1ccccc1CNC(=O)c1cc(C2CC2)nc2c1cnn2C(C)C | 5 | 940 | 1500 | 2030 | 36 | 11.3 | 39
22 | CC1CCCN(C(=O)C(C)Nc2cc(Cl)ccc2N2CCOCC2)C1 (stereo not drawn) | 13 | 520 | 1320 | 880 | 9.53 | – | 46
23 | CC(C)NCC(=O)Nc1cccc(C(=O)Nc2cccc(C(F)(F)F)c2)c1 | 0 | 350 | 4100 | 2250 | 40 | 11.5 | 47
24 | FC(F)(F)c1cnc(Sc2nnc(-c3ccncc3)o2)c(Cl)c1 | 28 | 270 | 200 | 470 | 0 | – | 75
25 | COc1cc2ncnc(NC3CCN(Cc4ccccc4)CC3)c2cc1OC | 36 | 620 | 970 | 1560 | 3 | – | 46
26 | CC(C)C(C(=O)Nc1ccc(S(=O)(=O)N(C)C)cc1)c1ccc(Cl)cc1 (stereo not drawn) | 17 | 930 | 640 | 790 | 31 | 5.35 | 66
27 | Cc1cc(Cl)c(S(=O)(=O)N2CCCC2)cc1OCC(=O)NC1CCCCC1 | 32 | 300 | 210 | 160 | 0 | – | 81
28 | Cc1nn(C)cc1C(C)Nc1nncc(-c2ccc(C(F)(F)F)cc2)n1 (stereo not drawn) | 19 | 120 | 200 | 260 | 0 | – | 45
29 | CNC(=O)c1cc(S(=O)(=O)N2CCN(c3ccccn3)CC2)cs1 | 6 | 1110 | 850 | 970 | 34 | >80 | 9
30 | Cc1cc(C)n(-c2ccc(NC(=O)C3CCN(Cc4cnc(C)s4)CC3)cc2)n1 | 18 | 780 | 2460 | 1870 | 0 | – | 38
